{"source": "patent US20100267561A1", "about": "“HERBICIDAL PYRIDAZINONE DERIVATIVES” (priority 2007, published 2010)", "test_in_all_cases": "Test B pre-/postemergence plant response", "format_in_all_cases": "in vivo", "key": {"[1]": {"test_system": "common (oilseed) sunflower (Helianthus annuus)", "details": "Preemergence", "procedure,_shortened": "(§1)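 Preemergence and postemergence (plants 2-18 cm, 1- to 4-leaf stage) applications used test chemicals in a non-phytotoxic solvent with surfactant. Plants were held in a greenhouse 13 to 15 days, then rated visually against controls on a 0-100 scale (0 no effect, 100 complete control).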"}, "[2]": {"test_system": "woolly cupgrass (Eriochloa villosa)", "procedure,_shortened": "as §1"}, "[3]": {"test_system": "common ragweed (Ambrosia elation)", "procedure,_shortened": "as §1"}, "[4]": {"test_system": "yellow nutsedge (Cyperus esculentus)", "procedure,_shortened": "as §1"}, "[5]": {"test_system": "wheat (Triticum aestivum)", "procedure,_shortened": "as §1"}, "[6]": {"test_system": "Russian thistle (Salsola iberica)", "details": "Preemergence", "procedure,_shortened": "as §1"}, "[7]": {"test_system": "downy bromegrass (Bromus tectorum)", "procedure,_shortened": "as §1"}, "wild oat (Avena fatua)": {"test_system": "wild oat (Avena fatua)", "procedure,_shortened": "as §1"}, "corn (Zea mays)": {"test_system": "corn (Zea mays)", "procedure,_shortened": "as §1"}, "[8]": {"test_system": "surinam grass (Brachiaria decumbens)", "procedure,_shortened": "as §1"}, "[9]": {"test_system": "green foxtail (Setaria viridis)", "procedure,_shortened": "as §1"}, "[10]": {"test_system": "cocklebur (Xanthium strumarium)", "procedure,_shortened": "as §1"}, "[11]": {"test_system": "eastern black (E.B.) nightshade (Solanum ptycanthum)", "details": "Preemergence", "procedure,_shortened": "as §1"}, "[12]": {"test_system": "blackgrass (Alopecurus myosuroides)", "procedure,_shortened": "as §1"}, "[13]": {"details": "8 g ai/ha, scale 0 to 100 (0 no effect, 100 complete control)"}, "[14]": {"details": "31 g ai/ha, scale 0 to 100 (0 no effect, 100 complete control)"}, "[15]": {"details": "62 g ai/ha, 0 to 100 scale, 0 no effect, 100 complete control"}, "[16]": {"details": "8 g ai/ha, postemergence, 0-100 scale"}, "[17]": {"details": "16 g ai/ha, postemergence, 0-100 scale"}, "[18]": {"details": "Postemergence, 31 g ai/ha, scale 0 to 100"}, "[19]": {"details": "Postemergence, 62 g ai/ha, scale 0 to 100, 0 no effect, 100 complete control"}, "[20]": {"details": "Preemergence, 8 g ai/ha, scale 0 to 100 (0 no effect, 100 complete control)"}, "[21]": {"details": "Preemergence, 31 g ai/ha, scale 0 to 100 (0 no effect, 100 complete control)"}, "[22]": {"details": "Preemergence, 62 g ai/ha, 0 to 100 scale, 0 no effect, 100 complete control"}, "[23]": {"details": "Preemergence, 16 g ai/ha, scale 0 to 100"}}, "data": [{"smiles": "COc1nn(C)c(=O)c(-n2nc(-c3ccc(Br)cc3)cc2C)c1O", "note": "[Compound 82]", "values": [{"measurement": "Sunflower plant response rating", "setting": "[1]; [13]", "value": 0}, {"measurement": "Plant response rating, Sunflower", "setting": "[1]; [14]", "value": 70}, {"measurement": "Plant response rating, Sunflower", "setting": "[1]; [15]", "value": 85}, {"measurement": "Sunflower plant response rating", "setting": "[1]; 16 g ai/ha, scale 0 to 100", "value": 60}, {"measurement": "Cupgrass, Woolly plant response rating", "setting": "[2]; [16]", "value": 85}, {"measurement": "Cupgrass, Woolly plant response rating", "setting": "[2]; [17]", "value": 90}, {"measurement": "Plant response rating, Cupgrass, Woolly", "setting": "[2]; [18]", "value": 95}, {"measurement": "Plant response rating, Cupgrass, Woolly", "setting": "[2]; [19]", "value": 100}, {"measurement": "Cupgrass, Woolly plant response rating", "setting": "[2]; [20]", "value": 45}, {"measurement": "Plant response rating, Cupgrass, Woolly", "setting": "[2]; [21]", "value": 98}, {"measurement": "Plant response rating, Cupgrass, Woolly", "setting": "[2]; [22]", "value": 100}, {"measurement": "Cupgrass, Woolly plant response rating", "setting": "[2]; [23]", "value": 80}, {"measurement": "Ragweed plant response rating", "setting": "[3]; [16]", "value": 20}, {"measurement": "Ragweed plant response rating", "setting": "[3]; [17]", "value": 40}, {"measurement": "Plant response rating, Ragweed", "setting": "[3]; [18]", "value": 65}, {"measurement": "Plant response rating, Ragweed", "setting": "[3]; [19]", "value": 85}, {"measurement": "Ragweed plant response rating", "setting": "[3]; [20]", "value": 0}, {"measurement": "Plant response rating, Ragweed", "setting": "[3]; [21]", "value": 50}, {"measurement": "Plant response rating, Ragweed", "setting": "[3]; [22]", "value": 80}, {"measurement": "Ragweed plant response rating", "setting": "[3]; [23]", "value": 20}, {"measurement": "Nutsedge, Yellow plant response rating", "setting": "[4]; [16]", "value": 0}, {"measurement": "Nutsedge, Yellow plant response rating", "setting": "[4]; [17]", "value": 0}, {"measurement": "Plant response rating, Nutsedge, Yellow", "setting": "[4]; [18]", "value": 0}, {"measurement": "Plant response rating, Nutsedge, Yellow", "setting": "[4]; [19]", "value": 0}, {"measurement": "Nutsedge, Yellow plant response rating", "setting": "[4]; [20]", "value": 0}, {"measurement": "Plant response rating, Nutsedge, Yellow", "setting": "[4]; [21]", "value": 0}, {"measurement": "Plant response rating, Nutsedge, Yellow", "setting": "[4]; [22]", "value": 45}, {"measurement": "Nutsedge, Yellow plant response rating", "setting": "[4]; [23]", "value": 0}, {"measurement": "Wheat plant response rating", "setting": "[5]; [16]", "value": 85}, {"measurement": "Wheat plant response rating", "setting": "[5]; [17]", "value": 98}, {"measurement": "Plant response rating, Wheat", "setting": "[5]; [18]", "value": 100}, {"measurement": "Plant response rating, Wheat", "setting": "[5]; [19]", "value": 100}, {"measurement": "Wheat plant response rating", "setting": "[5]; [20]", "value": 0}, {"measurement": "Plant response rating, Wheat", "setting": "[5]; [21]", "value": 98}, {"measurement": "Plant response rating, Wheat", "setting": "[5]; [22]", "value": 100}, {"measurement": "Wheat plant response rating", "setting": "[5]; [23]", "value": 65}, {"measurement": "Russian Thistle plant response rating", "setting": "[6]; [13]", "value": 0}, {"measurement": "Plant response rating, Russian Thistle", "setting": "[6]; [14]", "value": 0}, {"measurement": "Plant response rating, Russian Thistle", "setting": "[6]; [15]", "value": 0}, {"measurement": "Russian Thistle plant response rating", "setting": "[6]; 16 g ai/ha, scale 0 to 100", "value": 0}, {"measurement": "Bromegrass, Downy plant response rating", "setting": "[7]; [16]", "value": 85}, {"measurement": "Bromegrass, Downy plant response rating", "setting": "[7]; [17]", "value": 95}, {"measurement": "Plant response rating, Bromegrass, Downy", "setting": "[7]; [18]", "value": 100}, {"measurement": "Plant response rating, Bromegrass, Downy", "setting": "[7]; [19]", "value": 100}, {"measurement": "Bromegrass, Downy plant response rating", "setting": "[7]; [20]", "value": 30}, {"measurement": "Plant response rating, Bromegrass, Downy", "setting": "[7]; [21]", "value": 98}, {"measurement": "Plant response rating, Bromegrass, Downy", "setting": "[7]; [22]", "value": 100}, {"measurement": "Bromegrass, Downy plant response rating", "setting": "[7]; [23]", "value": 50}, {"measurement": "Oat, Wild plant response rating", "setting": "wild oat (Avena fatua); [16]", "value": 95}, {"measurement": "Oat, Wild plant response rating", "setting": "wild oat (Avena fatua); [17]", "value": 95}, {"measurement": "Plant response rating, Oat, Wild", "setting": "wild oat (Avena fatua); [18]", "value": 95}, {"measurement": "Plant response rating, Oat, Wild", "setting": "wild oat (Avena fatua); [19]", "value": 100}, {"measurement": "Oat, Wild plant response rating", "setting": "wild oat (Avena fatua); [20]", "value": 0}, {"measurement": "Plant response rating, Oat, Wild", "setting": "wild oat (Avena fatua); [21]", "value": 80}, {"measurement": "Plant response rating, Oat, Wild", "setting": "wild oat (Avena fatua); [22]", "value": 80}, {"measurement": "Oat, Wild plant response rating", "setting": "wild oat (Avena fatua); [23]", "value": 60}, {"measurement": "Corn plant response rating", "setting": "corn (Zea mays); [16]", "value": 40}, {"measurement": "Corn plant response rating", "setting": "corn (Zea mays); [17]", "value": 100}, {"measurement": "Plant response rating, Corn", "setting": "corn (Zea mays); [18]", "value": 100}, {"measurement": "Plant response rating, Corn", "setting": "corn (Zea mays); [19]", "value": 100}, {"measurement": "Corn plant response rating", "setting": "corn (Zea mays); [20]", "value": 95}, {"measurement": "Plant response rating, Corn", "setting": "corn (Zea mays); [21]", "value": 98}, {"measurement": "Plant response rating, Corn", "setting": "corn (Zea mays); [22]", "value": 98}, {"measurement": "Corn plant response rating", "setting": "corn (Zea mays); [23]", "value": 95}, {"measurement": "Surinam Grass plant response rating", "setting": "[8]; [16]", "value": 75}, {"measurement": "Surinam Grass plant response rating", "setting": "[8]; [17]", "value": 95}, {"measurement": "Plant response rating, Surinam Grass", "setting": "[8]; [18]", "value": 100}, {"measurement": "Plant response rating, Surinam Grass", "setting": "[8]; [19]", "value": 100}, {"measurement": "Surinam Grass plant response rating", "setting": "[8]; [20]", "value": 80}, {"measurement": "Plant response rating, Surinam Grass", "setting": "[8]; [21]", "value": 95}, {"measurement": "Plant response rating, Surinam Grass", "setting": "[8]; [22]", "value": 100}, {"measurement": "Surinam Grass plant response rating", "setting": "[8]; [23]", "value": 85}, {"measurement": "Foxtail, Green plant response rating", "setting": "[9]; [16]", "value": 85}, {"measurement": "Foxtail, Green plant response rating", "setting": "[9]; [17]", "value": 100}, {"measurement": "Plant response rating, Foxtail, Green", "setting": "[9]; [18]", "value": 100}, {"measurement": "Plant response rating, Foxtail, Green", "setting": "[9]; [19]", "value": 100}, {"measurement": "Foxtail, Green plant response rating", "setting": "[9]; [20]", "value": 70}, {"measurement": "Plant response rating, Foxtail, Green", "setting": "[9]; [21]", "value": 100}, {"measurement": "Plant response rating, Foxtail, Green", "setting": "[9]; [22]", "value": 100}, {"measurement": "Foxtail, Green plant response rating", "setting": "[9]; [23]", "value": 100}, {"measurement": "Cocklebur plant response rating", "setting": "[10]; [16]", "value": 0}, {"measurement": "Cocklebur plant response rating", "setting": "[10]; [17]", "value": 0}, {"measurement": "Plant response rating, Cocklebur", "setting": "[10]; [18]", "value": 0}, {"measurement": "Plant response rating, Cocklebur", "setting": "[10]; [19]", "value": 20}, {"measurement": "Cocklebur plant response rating", "setting": "[10]; [20]", "value": 0}, {"measurement": "Plant response rating, Cocklebur", "setting": "[10]; [21]", "value": 0}, {"measurement": "Plant response rating, Cocklebur", "setting": "[10]; [22]", "value": 35}, {"measurement": "Cocklebur plant response rating", "setting": "[10]; [23]", "value": 0}, {"measurement": "Nightshade, E. B. plant response rating", "setting": "[11]; [13]", "value": 0}, {"measurement": "Plant response rating, Nightshade, E. B.", "setting": "[11]; [14]", "value": 0}, {"measurement": "Plant response rating, Nightshade, E. B.", "setting": "[11]; [15]", "value": 0}, {"measurement": "Nightshade, E. B. plant response rating", "setting": "[11]; 16 g ai/ha, scale 0 to 100", "value": 0}, {"measurement": "Blackgrass plant response rating", "setting": "[12]; [16]", "value": 98}, {"measurement": "Blackgrass plant response rating", "setting": "[12]; [17]", "value": 98}, {"measurement": "Plant response rating, Blackgrass", "setting": "[12]; [18]", "value": 100}, {"measurement": "Plant response rating, Blackgrass", "setting": "[12]; [19]", "value": 100}, {"measurement": "Blackgrass plant response rating", "setting": "[12]; [20]", "value": 80}, {"measurement": "Plant response rating, Blackgrass", "setting": "[12]; [21]", "value": 100}, {"measurement": "Plant response rating, Blackgrass", "setting": "[12]; [22]", "value": 100}, {"measurement": "Blackgrass plant response rating", "setting": "[12]; [23]", "value": 98}]}]}
